# Source: ChEMBL document CHEMBL3232777, “QSAR models for HEPT derivates as NNRTI inhibitors based on Monte Carlo method” (Eur J Med Chem, 2014)
# Test system: Human immunodeficiency virus 1
# Assay: Antiviral activity against HIV1 3B infected in human MT4 cells assessed as protection from cytopathic effect
# Assay type: functional, organism-based
# Conditions: Human immunodeficiency virus 1, 3B
row,IC50 [µM],Compound
1,0.0912,CCc1c(Sc2ccccc2)n(COCCc2ccccc2)c(=S)[nH]c1=O
2,2.04,C=Cc1c(Sc2ccccc2)n(COCCO)c(=O)[nH]c1=O
3,141,Cc1c(Sc2ccccc2[N+](=O)[O-])n(COCCO)c(=O)[nH]c1=O
4,251,Cc1c(O)nc(O)nc1Sc1ccccc1
5,0.219,CCc1c(Sc2ccccc2)n(COC(C)C)c(=S)[nH]c1=O
6,8.71,COCCOCn1c(Sc2ccccc2)c(C)c(=O)[nH]c1=O
7,81.3,Cc1c(Sc2cccc(O)c2)n(COCCO)c(=O)[nH]c1=O
8,12,Cc1c(Sc2cccc(C(C)(C)C)c2)n(COCCO)c(=O)[nH]c1=O
9,0.977,Cc1c(Sc2ccccc2)n(COCCO)c(=S)[nH]c1=O
10,10,Cc1c(Sc2cccc(C#N)c2)n(COCCO)c(=O)[nH]c1=O
11,295,Cc1c(Sc2cccc(CO)c2)n(COCCO)c(=O)[nH]c1=O
12,6.03,O=c1[nH]c(=O)n(COCCO)c(Sc2ccccc2)c1/C=C/c1ccccc1
13,0.00813,CCc1c(Sc2ccccc2)n(COCc2ccccc2)c(=S)[nH]c1=O
14,0.851,O=c1[nH]c(=O)n(COCCO)c(Sc2ccccc2)c1C=C(c1ccccc1)c1ccccc1
15,20,Cc1c(Sc2ccccc2)n(COCCOCc2ccccc2)c(=O)[nH]c1=O
16,251,Cc1c(Sc2cccc(N)c2)n(COCCO)c(=O)[nH]c1=O
17,44.7,Cc1c(Sc2cccc(C(F)(F)F)c2)n(COCCO)c(=O)[nH]c1=O
18,275,Cc1c(Sc2ccc(O)cc2)n(COCCO)c(=O)[nH]c1=O
19,4.68,CCCCOCn1c(Sc2ccccc2)c(C)c(=O)[nH]c1=O
20,309,Cc1c(Sc2cccc(C(N)=O)c2)n(COCCO)c(=O)[nH]c1=O
21,0.219,Cc1cc(C)cc(Sc2c(C)c(=O)[nH]c(=S)n2COCCO)c1
22,3.39,O=c1[nH]c(=O)n(COCCO)c(Sc2ccccc2)c1C#Cc1ccccc1
23,0.00724,CC(C)c1c(Sc2ccccc2)n(COCc2ccccc2)c(=S)[nH]c1=O
24,1.62,CCc1c(Sc2ccccc2)n(COC2CCCCC2)c(=S)[nH]c1=O
25,6.76,CC(=O)OCCOCn1c(Sc2ccccc2)c(C)c(=O)[nH]c1=O
26,10,Cc1c(Sc2cccc(I)c2)n(COCCO)c(=O)[nH]c1=O

row,IC50 [µM],Compound
1,19.1,COc1ccccc1Sc1c(C)c(=O)[nH]c(=O)n1COCCO
2,3.39,CCCc1c(Sc2ccccc2)n(COCCO)c(=O)[nH]c1=O
3,3.31,Cc1c(Sc2cccc(F)c2)n(COCCO)c(=O)[nH]c1=O
4,7.59,Cc1c(Sc2ccccc2)n(COCCOC(=O)c2ccccc2)c(=O)[nH]c1=O
5,0.0776,CCc1c(Sc2ccccc2)n(COCc2ccc(C)cc2)c(=S)[nH]c1=O
6,1.51,Cc1c(Sc2ccccc2)n(COCCCl)c(=O)[nH]c1=O
7,0.0102,CCOCn1c(Sc2ccccc2)c(C(C)C)c(=O)[nH]c1=O
8,33.9,Cc1c(Sc2cccc([N+](=O)[O-])c2)n(COCCO)c(=O)[nH]c1=O
9,7.94,COC(=O)c1cccc(Sc2c(C)c(=O)[nH]c(=O)n2COCCO)c1
10,0.0589,CC(C)c1c(Sc2ccccc2)n(COCCO)c(=S)[nH]c1=O
11,251,COc1ccc(Sc2c(C)c(=O)[nH]c(=O)n2COCCO)cc1
12,30.2,O=c1[nH]c(=O)n(COCCO)c(Sc2ccccc2)c1Cl
13,191,Cc1c(Sc2ccc([N+](=O)[O-])cc2)n(COCCO)c(=O)[nH]c1=O
14,2.19,CCn1c(Sc2ccccc2)c(C)c(=O)[nH]c1=O
15,0.00776,CCc1c(Sc2cc(C)cc(C)c2)n(COCCO)c(=S)[nH]c1=O
16,0.0955,CCc1c(Sc2ccccc2)n(COCCc2ccccc2)c(=O)[nH]c1=O
17,0.0129,CCOCn1c(Sc2cc(Cl)cc(Cl)c2)c(CC)c(=O)[nH]c1=S
18,2.51,C=CCc1c(Sc2ccccc2)n(COCCO)c(=O)[nH]c1=O
19,2.09,COCn1c(Sc2ccccc2)c(C)c(=O)[nH]c1=O
20,0.00501,Cc1cc(C)cc(Sc2c(C(C)C)c(=O)[nH]c(=S)n2COCCO)c1
21,151,Cc1c(Sc2ccccc2)n(C)c(=O)[nH]c1=O
22,0.0191,CCOCn1c(Sc2ccccc2)c(CC)c(=O)[nH]c1=O
23,42.7,O=c1[nH]c(=O)n(COCCO)c(Sc2ccccc2)c1Cc1ccccc1
24,7.08,Cc1c(Sc2ccccc2)n(COCCO)c(=O)[nH]c1=O [HEPT]
25,19.1,CC#Cc1c(Sc2ccccc2)n(COCCO)c(=O)[nH]c1=O
26,0.0871,Cc1c(Sc2ccccc2)n(COCc2ccccc2)c(=O)[nH]c1=O

row,IC50 [µM],Compound
1,2.69,CCc1cccc(Sc2c(C)c(=O)[nH]c(=O)n2COCCO)c1
2,0.012,CCc1c(Sc2ccccc2)n(COCc2ccc(Cl)cc2)c(=S)[nH]c1=O
3,7.24,CC(=O)c1cccc(Sc2c(C)c(=O)[nH]c(=O)n2COCCO)c1
4,100,O=c1[nH]c(=O)n(COCCO)c(Sc2ccccc2)c1F
5,0.12,CCc1c(Sc2ccccc2)n(COCCO)c(=O)[nH]c1=O
6,2.57,Cc1cccc(Sc2c(C)c(=O)[nH]c(=O)n2COCCO)c1
7,0.0263,CCOCn1c(Sc2ccccc2)c(CC)c(=O)[nH]c1=S
8,0.1,CCOCn1c(Sc2ccccc2)c(C2CC2)c(=O)[nH]c1=O
9,5.75,Cc1c(Sc2ccccc2)n(COCCN=[N+]=[N-])c(=O)[nH]c1=O
10,21.9,COc1cccc(Sc2c(C)c(=O)[nH]c(=O)n2COCCO)c1
11,0.11,CCc1c(Sc2ccccc2)n(COCCO)c(=S)[nH]c1=O
12,0.0631,CC(C)c1c(Sc2ccccc2)n(COCCO)c(=O)[nH]c1=O
13,110,CC(=O)c1ccc(Sc2c(C)c(=O)[nH]c(=O)n2COCCO)cc1
14,0.339,CCc1c(Sc2ccccc2)n(COC(C)C)c(=O)[nH]c1=O
15,251,Cc1c(Sc2ccc(F)cc2)n(COCCO)c(=O)[nH]c1=O
16,0.447,CCc1c(Sc2ccccc2)n(COCC2CCCCC2)c(=O)[nH]c1=O
17,3.31,CCCOCn1c(Sc2ccccc2)c(C)c(=O)[nH]c1=O
18,251,Cc1c(Sc2ccc(Cl)cc2)n(COCCO)c(=O)[nH]c1=O
19,0.0129,CCOCn1c(Sc2ccccc2)c(C(C)C)c(=O)[nH]c1=S
20,0.355,CCc1c(Sc2ccccc2)n(COCC2CCCCC2)c(=S)[nH]c1=O
21,6.61,COC(=O)c1c(Sc2ccccc2)n(COCCO)c(=O)[nH]c1=O
22,0.0955,CCOCn1c(Sc2ccccc2)c(C2CC2)c(=O)[nH]c1=S
23,0.00282,CCc1c(Sc2cc(C)cc(C)c2)n(COCc2ccccc2)c(=O)[nH]c1=O
24,0.00309,CC(C)c1c(Sc2ccccc2)n(COCc2ccccc2)c(=O)[nH]c1=O
25,0.00501,CCOCn1c(Sc2cc(C)cc(C)c2)c(CC)c(=O)[nH]c1=S
26,1.29,Cc1c(Sc2cc(Cl)cc(Cl)c2)n(COCCO)c(=O)[nH]c1=O

row,IC50 [µM],Compound
1,70.8,Cc1ccccc1Sc1c(C)c(=O)[nH]c(=O)n1COCCO
2,5.75,Cc1c(Sc2cccc(Br)c2)n(COCCO)c(=O)[nH]c1=O
3,18.2,C#Cc1c(Sc2ccccc2)n(COCCO)c(=O)[nH]c1=O
4,251,Cc1c(Sc2ccc(C#N)cc2)n(COCCO)c(=O)[nH]c1=O
5,0.331,CCOCn1c(Sc2ccccc2)c(C)c(=O)[nH]c1=O
6,18.2,O=C(Nc1ccccc1)c1c(Sc2ccccc2)n(COCCO)c(=O)[nH]c1=O
7,0.00589,CCc1c(Sc2ccccc2)n(COCc2ccccc2)c(=O)[nH]c1=O
8,0.00724,CCc1c(Sc2cc(C)cc(C)c2)n(COCc2ccccc2)c(=S)[nH]c1=O
9,12.9,O=C(c1ccccc1)c1c(Sc2ccccc2)n(COCCO)c(=O)[nH]c1=O
10,12,CC(C)C(=O)c1c(Sc2ccccc2)n(COCCO)c(=O)[nH]c1=O
11,0.00575,CCOCn1c(Sc2cc(C)cc(C)c2)c(CC)c(=O)[nH]c1=O
12,3.98,CCc1c(Sc2ccccc2)n(COC2CCCCC2)c(=O)[nH]c1=O
13,20,O=c1[nH]c(=O)n(COCCO)c(Sc2ccccc2)c1Br
14,12.9,Cc1c(Sc2cccc(Cl)c2)n(COCCO)c(=O)[nH]c1=O
15,20.9,O=c1[nH]c(=O)n(COCCO)c(Sc2ccccc2)c1Sc1ccccc1
16,219,Cc1ccc(Sc2c(C)c(=O)[nH]c(=O)n2COCCO)cc1
17,34.7,CCCCCOCCOCn1c(Sc2ccccc2)c(C)c(=O)[nH]c1=O
18,355,Cc1c(Sc2cccc(C(=O)O)c2)n(COCCO)c(=O)[nH]c1=O
19,0.0141,CCc1c(Sc2cc(Cl)cc(Cl)c2)n(COCCO)c(=O)[nH]c1=O
20,0.0427,CCc1c(Sc2cc(Cl)cc(Cl)c2)n(COCCO)c(=S)[nH]c1=O
21,129,Cc1c(Sc2ccccc2Cl)n(COCCO)c(=O)[nH]c1=O
22,10,CCCc1c(Sc2ccccc2)n(COCCO)c(=S)[nH]c1=O
23,0.00741,CCOCn1c(Sc2cc(Cl)cc(Cl)c2)c(CC)c(=O)[nH]c1=O
24,1.1,Cc1c(Sc2ccccc2)n(COCCF)c(=O)[nH]c1=O
25,1.2,CCCCn1c(Sc2ccccc2)c(C)c(=O)[nH]c1=O
26,3.63,O=c1[nH]c(=O)n(COCCO)c(Sc2ccccc2)c1I
